In general, IC50 refers to the point on the concentration scale where inhibition reaches its midpoint. Usually Ki stands for the dissociation constant of the complex between target and ligand, obtained from inhibition or displacement.

Entries after “also recorded” stand apart in the source; their conditions may differ. Read-outs that look alike come from different tables or passages of the source. Some results are limits rather than exact numbers.

From publication PMC4763008, “Selective Inhibition of Bakuchicin Isolated from Psoralea corylifolia on CYP1A in Human Liver Microsomes” (Evidence-based Complementary and Alternative Medicine : eCAM, 2016) come the findings set out here.

Data set [1] addresses T1, CYP3A4 (Homo sapiens, UniProt P08684).
T1 construct: each reaction was performed with 0.5 mg/mL pooled human liver microsomes; tissue Corning Gentest BD UltraPool HLM 150; host or cells: pooled human liver microsomes
The data set can be described thus: CYP inhibition, cocktail of probe substrates in pooled human liver microsomes: midazolam 1'-hydroxylation. It counts as in vitro ADME. As to conditions: pooled HLMs, substrate 2.5 μM.

Data set [2] addresses T2, CYP2C9 (Homo sapiens, UniProt P11712).
T2 construct: each reaction was performed with 0.5 mg/mL pooled human liver microsomes; tissue Corning Gentest BD UltraPool HLM 150; host or cells: pooled human liver microsomes
The data set can be described thus: CYP inhibition, cocktail of probe substrates in pooled human liver microsomes: diclofenac 4'-hydroxylation. The format is in vitro ADME. As to conditions: pooled HLMs, substrate 10 μM.

The target of data set [3] is T3, human recombinant cDNA-expressed CYP1A2 (Homo sapiens, UniProt P05177).
T3 construct: purchased Corning Gentest (Woburn, MA)
T3 sequence (P05177 1-516): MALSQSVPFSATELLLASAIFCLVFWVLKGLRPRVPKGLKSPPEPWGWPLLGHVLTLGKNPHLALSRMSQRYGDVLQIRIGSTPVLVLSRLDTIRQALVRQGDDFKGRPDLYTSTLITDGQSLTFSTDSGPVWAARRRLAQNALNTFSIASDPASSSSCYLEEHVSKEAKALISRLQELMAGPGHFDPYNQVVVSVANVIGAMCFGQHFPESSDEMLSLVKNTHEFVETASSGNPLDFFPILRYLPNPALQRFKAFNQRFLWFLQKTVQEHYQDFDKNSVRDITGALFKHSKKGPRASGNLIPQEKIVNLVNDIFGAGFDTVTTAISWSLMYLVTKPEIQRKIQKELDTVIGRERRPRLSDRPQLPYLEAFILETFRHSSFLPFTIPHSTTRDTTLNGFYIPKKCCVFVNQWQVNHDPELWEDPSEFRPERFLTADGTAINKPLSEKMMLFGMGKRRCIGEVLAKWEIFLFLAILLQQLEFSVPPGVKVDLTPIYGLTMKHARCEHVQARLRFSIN
The data set can be described thus: Inhibition of phenacetin O-deethylation by human recombinant cDNA-expressed CYP1A2. It counts as biochemical. As for the experimental part: (§1) To confirm the selective inhibition of CYP1A by bakuchicin, 10 pmol of human recombinant cDNA-expressed CYP1A1 and CYP1A2 was incubated with bakuchicin at 0.1–50 μM and NGS for 60 min at 37°C after the addition of 80 μM phenacetin as a selective CYP1A substrate. Those were terminated by adding 100 μL acetonitrile containing 0.1% formic acid and 2.5 μL of internal standard solution (5 μM reserpine) in methanol. After mixing and centrifuging at 13,000 ×g for 12 min, a 5 μL aliquot was injected onto a C18 column for LC-MS/MS analysis. CYP1A1 and CYP1A2 activities were determined by phenacetin O-deethylation. The inhibition patterns of bakuchicin on CYP1A in human recombinant cDNA-expressed CYP1A1 and CYP1A2 were confirmed by Michaelis-Menten and secondary plot.
(§2) All measurements were performed using LC-MS/MS in multiple reaction monitoring mode. LC-MS/MS was performed using an Accela™ LC system coupled to a TSQ Vantage triple quadrupole mass spectrometer (Thermo Fisher Scientific Inc., USA) equipped with a HESI-II Spray source. Electrospray ionization was performed in positive mode at a spray voltage of 3,500 V (except for the detection of 6-hydroxy chlorzoxazone). Nitrogen was used as a sheath and auxiliary gas at optimum values of 45 and 20 (arbitrary units), respectively. Vaporizer and capillary temperatures were 150 and 300°C, respectively. For LC analysis an Inertsil® ODS-2 (3 μm, 2.1 × 150 mm) column (GL Sciences Inc., Torrance, CA) was used. The mobile phase consisted of acetonitrile (mobile phase A) and water (mobile phase B), both of which contained 0.1% formic acid, at a flow rate of 0.22 mL/min at 30°C.
(§3) All incubations were performed in duplicate, and data are presented as means. IC50 values (the concentration of inhibitor causing a 50% inhibition in enzyme activity) were obtained using percent activity versus log[I] concentration plots. Kinetic parameters were estimated by curve fitting using SigmaPlot (version 12.0, Systat Software, Inc.).

Data set [4] has as its target T4, human recombinant cDNA-expressed CYP1A1 (Homo sapiens, UniProt P04798).
T4 construct: purchased Corning Gentest (Woburn, MA)
T4 sequence (P04798 1-512): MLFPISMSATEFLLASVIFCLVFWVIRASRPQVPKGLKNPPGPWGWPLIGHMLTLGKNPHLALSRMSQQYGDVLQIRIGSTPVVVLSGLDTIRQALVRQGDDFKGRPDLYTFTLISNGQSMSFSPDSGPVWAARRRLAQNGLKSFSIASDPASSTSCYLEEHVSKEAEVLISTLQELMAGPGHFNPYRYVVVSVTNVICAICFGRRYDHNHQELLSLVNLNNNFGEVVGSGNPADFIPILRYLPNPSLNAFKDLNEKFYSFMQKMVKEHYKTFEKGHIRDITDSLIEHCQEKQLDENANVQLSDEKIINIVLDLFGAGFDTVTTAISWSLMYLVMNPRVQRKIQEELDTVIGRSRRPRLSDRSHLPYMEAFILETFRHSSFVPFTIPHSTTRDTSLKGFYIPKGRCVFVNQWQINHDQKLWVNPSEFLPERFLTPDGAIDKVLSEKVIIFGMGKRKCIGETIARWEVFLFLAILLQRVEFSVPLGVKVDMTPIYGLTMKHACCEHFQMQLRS
The data set can be described thus: Inhibition of phenacetin O-deethylation by human recombinant cDNA-expressed CYP1A1. It counts as biochemical. As for the experimental part:
as §1, §2, §3

The mark [5] stands for this setting: 15 min preincubation with NADPH, read-out: IC50 With preincubation with NADPH.
The mark [6] stands for this setting: 15 min preincubation without NADPH, read-out: IC50 With preincubation Without NADPH.
Setting [7] is: without preincubation, read-out: IC50 Without preincubation.

T1 sequence (P08684 whole entry): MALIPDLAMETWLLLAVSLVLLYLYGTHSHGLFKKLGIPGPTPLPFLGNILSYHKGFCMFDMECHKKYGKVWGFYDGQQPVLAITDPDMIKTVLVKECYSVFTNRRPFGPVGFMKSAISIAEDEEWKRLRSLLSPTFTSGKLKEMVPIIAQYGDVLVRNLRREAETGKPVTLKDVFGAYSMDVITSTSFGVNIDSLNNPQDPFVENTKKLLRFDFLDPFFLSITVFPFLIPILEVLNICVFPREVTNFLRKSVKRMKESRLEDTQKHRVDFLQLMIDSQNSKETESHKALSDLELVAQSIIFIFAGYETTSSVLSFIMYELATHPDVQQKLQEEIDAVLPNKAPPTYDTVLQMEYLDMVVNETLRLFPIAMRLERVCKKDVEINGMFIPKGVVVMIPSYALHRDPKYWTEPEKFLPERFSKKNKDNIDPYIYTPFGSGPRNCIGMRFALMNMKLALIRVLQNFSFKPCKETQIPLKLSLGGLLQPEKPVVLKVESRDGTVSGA
T2 sequence (P11712 whole entry): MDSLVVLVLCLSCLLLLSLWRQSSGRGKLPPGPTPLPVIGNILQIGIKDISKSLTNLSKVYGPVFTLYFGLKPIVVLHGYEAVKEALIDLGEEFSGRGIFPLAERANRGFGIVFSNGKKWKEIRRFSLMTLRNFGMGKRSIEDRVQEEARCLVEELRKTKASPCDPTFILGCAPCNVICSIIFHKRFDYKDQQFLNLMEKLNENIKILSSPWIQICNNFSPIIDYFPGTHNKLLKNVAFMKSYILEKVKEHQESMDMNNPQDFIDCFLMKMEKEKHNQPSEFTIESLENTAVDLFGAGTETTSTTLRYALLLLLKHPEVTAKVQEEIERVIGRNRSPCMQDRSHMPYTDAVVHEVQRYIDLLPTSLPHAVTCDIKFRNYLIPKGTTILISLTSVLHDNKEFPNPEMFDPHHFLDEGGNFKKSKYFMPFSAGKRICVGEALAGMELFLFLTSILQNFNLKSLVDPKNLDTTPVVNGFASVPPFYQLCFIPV

For the molecule `O=c1ccc2c(ccc3ccoc32)o1` [Bakuchicin], the IC50 in data set [1] (setting [5]), in data set [1] (setting [6]), in data set [1] (setting [7]), in data set [2] (setting [5]), in data set [2] (setting [6]) and in data set [2] (setting [7]) was more than 100 µM in each case. In addition, the 50% inhibitory concentration (IC50) in data set [3] (recombinant CYP1A2, 80 μM phenacetin, 60 min, read-out: IC50, CYP1A2-catalyzed phenacetin O-deethylase activity) amounted to 1400 nM; in data set [4] (recombinant CYP1A1, 80 μM phenacetin, 60 min, read-out: IC50, CYP1A1-catalyzed phenacetin O-deethylase activity), 200 nM. Also, in data set [3] (recombinant CYP1A2, Lineweaver-Burk plot), the “inhibition mode on CYP1A2” value is given as “competitive inhibitor; also recorded: competitive inhibition”. Moreover, the Ki turned out to be 320 nM in data set [3] (recombinant CYP1A2, phenacetin 20, 40, 80 μM, 60 min, read-out: Ki on CYP1A2 (secondary plot)) and 110 nM in data set [4] (recombinant CYP1A1, phenacetin 20, 40, 80 μM, 60 min, read-out: Ki on CYP1A1 (secondary plot)). Also, the “Ki on CYP1A2 relative to Ki on CYP1A1” value in data set [3] (recombinant enzymes) came to 3 fold. Moreover, the “IC50 for CYP1A2 relative to CYP1A1” value in data set [3] (recombinant enzymes, CYP1A2 IC50 higher than CYP1A1 IC50) came out at 7 fold. Further, in data set [4] (recombinant CYP1A1, Lineweaver-Burk plot), the “inhibition mode on CYP1A1” value was “competitive inhibitor; also recorded: competitive inhibition”.
